Like-named read-outs stand apart in the source and are kept apart here. Each block holds one compound with its values, some of them ahead of it. No end group written: not given here.
Tests used:
[1] = biological target: T1, human Y4R (Homo sapiens, UniProt P50391); assay: Inositol phosphate (IP3) accumulation assay, Y4R stimulated with PP; type: cell-based; conditions: for IP accumulation following stimulation of Y4R (DMSO set to 100%): 10 μM compound, 1 nM PP, COS-7 cells with Δ6Gαqi4myr, mean ± SEM, n = 2; for Effect of compound on potency (pEC50) of PP at Y4R (in words): 30 μM compound vs DMSO, full PP concentration-response; for EC50 / Y4R PAM activity, potentiation of a PP EC20 response (in words): IP accumulation; for EC50: three independent experiments in duplicate; for Y4R PAM activity, potentiation of a PP EC20 response (in words): concentration-dependent
T1 construct: expressed in transfected cells
T1 sequence (P50391 whole entry): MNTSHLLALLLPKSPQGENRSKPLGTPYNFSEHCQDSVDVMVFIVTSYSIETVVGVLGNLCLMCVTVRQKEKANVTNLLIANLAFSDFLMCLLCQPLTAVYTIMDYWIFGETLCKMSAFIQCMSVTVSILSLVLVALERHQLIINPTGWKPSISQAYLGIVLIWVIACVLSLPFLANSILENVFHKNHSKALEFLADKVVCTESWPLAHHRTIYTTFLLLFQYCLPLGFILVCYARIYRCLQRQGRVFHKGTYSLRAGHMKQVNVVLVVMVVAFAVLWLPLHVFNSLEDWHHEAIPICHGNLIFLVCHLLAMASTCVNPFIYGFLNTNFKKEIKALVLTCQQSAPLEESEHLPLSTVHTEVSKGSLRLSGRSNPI
Procedure: (§1) COS-7 cells stably expressing hY1/2/4/5R_eYFP fusion protein and the Δ6Gαqi4myr chimeric Gα-protein were prepared as previously described. The hY1/2/4/5R_eYFP cDNA was subcloned into MCS1 of a pVitro2-MCS vector carrying a hygromycin resistance gene; the Δ6Gαqi4myr cDNA was subcloned into MCS1 of a pVitro2-MCS vector carrying a G418 resistance gene (Invivogen, San Diego, CA).
(§2) COS-7 (African Green Monkey kidney) cells stably expressing the hY1/2/4/5R_eYFP fusion protein and the Δ6Gαqi4myr chimeric Gα-protein were cultured at 37°C in high glucose Dulbecco’s Modified Eagle Medium (DMEM, Life Technologies, Carlsbad, CA) with glutamine and sodium pyruvate (Life Technologies/Lonza) supplemented with 10% (w/v) FBS (Invitrogen, Carlsbad, CA), 1.5 mg/mL G418-sulfate (Amresco, Solon, OH) and 133 μg/ml hygromycin (Invivogen).
(§3) Cells were seeded into 48-well plates and incubated for 24 hours at 37°C / 5% CO2. Afterwards, cells were labeled for at least 16 hours in DMEM+10% (w/v) FBS containing 2 μCi/ml myo-[2- ^3H(N)]-inositol (PerkinElmer) at 37°C / 5% CO2. Labeling solution was aspirated and cells were washed with 20 μL/well DMEM + 10 mM LiCl (Sigma-Aldrich; DMEM/LiCl) and stimulated with the peptide solutions and compounds. Specifically, 50 μl/well DMEM/LiCl were added after washing, followed by addition of 50 μl/well test compound in DMEM/LiCl (3-fold over the final concentration) and addition of 50 μl/well peptide solution (3-fold over the final concentration) in DMEM/LiCl. Stimulation was performed for 2 hours at 37°C / 5% CO2. Cell lysis, subsequent sample preparation and radiometric detection was performed as described previously.
(§4) Data analysis was performed with GraphPad Prism 5.03 software (GraphPad Software, San Diego, CA). Calculation of EC50 and pEC50 was performed using standard non-linear regression (log(agonist) vs. response, three parameters). All data were normalized to the corresponding control curve in the absence of the modulator. Final concentration response curves were created by calculating the mean and SEM of all individual experiments for each data point. Statistical evaluation was performed using two-way ANOVA and Bonferroni post test with * P ≤ 0.05, ** P ≤ 0.01, *** P ≤ 0.001.
(§5) Until now, no small molecule agonists of Y receptors have been described. Based on this lack of any structure activity data, identification of Y4R PAMs was initiated with a Ca^2+-flux-based HTS approach. An initial pilot screen was performed with the ‘Spectrum collection’, a small scale library with 2000 compounds comprising synthetic small molecules as well as purified natural products covering a range of known biologically active properties. This pilot screen yielded 65 putative PAMs. All initial hits were retested for off-target effects in wildtype COS-7 cells and the PAM effect was validated via concentration-dependent potentiation of a submaximal PP response. After eliminating structures that show off-target effects, seven compounds with potencies in the micromolar range were identified (S1 Fig) for further investigation. Validation of the Y4R PAM activity was performed with a well-established assay system for Y receptor activation studies, based on cellular accumulation of inositol phosphate. Furthermore, the compound activity at Y1R, Y2R and Y5R was examined at this stage of Y4R PAM identification. Therefore, Y receptor activation with an agonist ligand concentration causing a submaximal response (1 nM, Fig 1) was monitored in presence and absence of test compound. This experimental setup allows the detection of potential compound-induced shifts of the concentration-response curve and parallel testing of all compounds on all Y receptor subtypes. […]

[2] = test system: T2, human Y1R; assay: Inositol phosphate (IP3) accumulation assay, Y1R stimulated with NPY; type: cell-based; conditions: for Effect of compound on potency (pEC50) of NPY at Y1R (in words): 30 μM compound vs DMSO, full NPY concentration-response
T2 construct: expressed in transfected cells
Procedure: as §1, §2, §3, §4, §5

[3] = test system: T3, human Y2R; assay: Inositol phosphate (IP3) accumulation assay, Y2R stimulated with NPY; type: cell-based; conditions: for Effect of compound on potency (pEC50) of NPY at Y2R (in words): 30 μM compound vs DMSO, full NPY concentration-response
T3 construct: expressed in transfected cells
Procedure: as §1, §2, §3, §4, §5

[4] = test system: T4, human Y5R; assay: Inositol phosphate (IP3) accumulation assay, Y5R stimulated with NPY; type: cell-based; conditions: for Effect of compound on potency (pEC50) of NPY at Y5R (in words): 30 μM compound vs DMSO, full NPY concentration-response
T4 construct: expressed in transfected cells
Procedure: as §1, §2, §3, §4
as §5, with “Furthermore, the compound activity at Y1R, Y2R and Y5R was examined at this stage of Y4R PAM identification.” left out, “compound.” for “compound. This experimental setup allows the detection of potential compound-induced shifts of the concentration-response curve and parallel testing of all compounds on all Y receptor subtypes.”

[5] = HPLC analysis of stability in DMEM assay conditions; type: physicochemical; conditions: pre-incubated in DMEM for 2 hours at 37°C
Procedure: Supplementary file pone.0157146.s003.png: S3 Fig HPLC analysis of VU0118748 stability in DMEM assay conditions. […] To test the stability of VU0118748 in the assay conditions, the compound was pre-incubated in DMEM for 2 hours at 37°C. […] (PNG) Click here for additional data file.

[6] = test system: db/db mice and high fat diet induced obesity in mice; set-up: method as in PMID 25282357; conditions: fed to mice, high nanomolar blood concentrations; cited from earlier work
[7] = test system: T5, Y4R; assay: HTS calcium flux assay; type: cell-based, human; conditions: Ca2+ flux, COS-7 hY4R_eYFP Δ6Gαqi4myr
T5 construct: expressed in transfected cells
Procedure: as §1, §2
The purities of compounds in the Vanderbilt HTS facility are more than 95% as confirmed by the supplier. A total of 35,288 compounds were tested for their ability to modulate the Y4R activation in conjunction with the Vanderbilt HTS facility. In a pilot HTS experiment, 2000 compounds (spectrum collection, MicroSource Discovery Systems, Inc., Gaylordsville, CT) were screened for modulation of the Y4R. […]

[8] = read-out: EC50, potentiation of a PP EC20 response at Y4R
[9] = 10 μM compound, 1 nM NPY, mean ± SEM, n = 2
[10] = read-out: pEC50 ± SEM, potentiation of a PP EC20 response at Y4R (converted)

IP accumulation following stimulation of Y4R (DMSO set to 100%) [1]: 185.7 ± 23.5%
Effect of compound on potency (pEC50) of PP at Y4R (in words) [1]: increase the potency of PP
EC50 [1, 8]: 620 nM
Increase in the potency of PP at Y4R (EC50 shift) ([1]; in presence of compound): 4 fold
Effect of compound on potency (pEC50) of NPY at Y1R (in words) [2]: small PAM effect
Effect of compound on potency (pEC50) of NPY at Y2R (in words) [3]: no effect
Effect of compound on potency (pEC50) of NPY at Y5R (in words) [4]: negative allosteric effect
Compound: O=C(Nc1ccc([N+](=O)[O-])cc1Cl)c1cc(Cl)ccc1O [Niclosamide, reference compound]
IP accumulation following stimulation of Y1R (DMSO set to 100%) [2, 9]: 125.4 ± 14.6%
IP accumulation following stimulation of Y2R (DMSO set to 100%) [3, 9]: 88.5 ± 6.2%
IP accumulation following stimulation of Y5R (DMSO set to 100%) [4, 9]: 83.4 ± 5.9%

Effect of compound on potency (pEC50) of PP at Y4R (in words) [1]: increase the potency of PP
EC50 [1, 8]: > 10000 nM
Effect of compound on potency (pEC50) of NPY at Y1R (in words) [2]: no effect
Effect of compound on potency (pEC50) of NPY at Y2R (in words) [3]: slight PAM effect
Compound: Cc1ccc(NC(=O)c2cc([N+](=O)[O-])ccc2O)cc1 [VU0048992]

Effect of compound on potency (pEC50) of PP at Y4R (in words) [1]: increase the potency of PP
EC50 [1, 8]: > 10000 nM
Effect of compound on potency (pEC50) of NPY at Y1R (in words) [2]: no effect
Compound: O=C(Nc1ccc(Cl)cc1)c1cc([N+](=O)[O-])ccc1O [VU0049150]

Y4R PAM activity, potentiation of a PP EC20 response (in words) [1]: inactive
Effect of compound on potency (pEC50) of NPY at Y2R (in words) [3]: slight PAM effect
Compound: O=C(Nc1cc(C(F)(F)F)ccc1Cl)c1ccc(F)c([N+](=O)[O-])c1 [VU0114795]

Y4R PAM activity, potentiation of a PP EC20 response (in words) [1]: inactive
Compound: O=C(Nc1ccc([N+](=O)[O-])cc1Cl)c1ccncc1 [VU0357475]

IP accumulation following stimulation of Y4R (DMSO set to 100%) [1]: 120 ± 11%
Compound: Nc1ncnc2c1ncn2[C@@H]1O[C@H](CO)[C@@H](O)[C@H]1O [adenosine, reference compound]
Effect on Y1R signal transduction (in words) ([2]; 10 μM compound, 1 nM NPY): slightly decrease
Effect on Y5R signal transduction (in words) ([4]; 10 μM compound, 1 nM NPY): slightly decrease

The remaining lines, values behind:

Compound: O=C(Nc1ccc([N+](=O)[O-])cc1)c1cc(Br)ccc1O [VU0048913]
Effect of compound on potency (pEC50) of PP at Y4R (in words) [1]: increase the potency of PP
EC50 [1, 8]: 566 nM
EC50 [1, 10]: 575 nM
Effect of compound on potency (pEC50) of NPY at Y1R (in words) [2]: no effect
Effect of compound on potency (pEC50) of NPY at Y2R (in words) [3]: slight PAM effect

Compound: O=C(Oc1ccc(Cl)cc1C(=O)Nc1ccc([N+](=O)[O-])cc1Cl)c1ccc([N+](=O)[O-])cc1 [VU0118748]
Effect of compound on potency (pEC50) of PP at Y4R (in words) [1]: increase the potency of PP
EC50 [1, 8]: 473 nM
EC50 [1, 10]: 437 nM
Effect of compound on potency (pEC50) of NPY at Y1R (in words) [2]: no effect
Effect of compound on potency (pEC50) of NPY at Y5R (in words) [4]: negative allosteric effect
Compound still intact [5]: 95%

Compound: COc1ccc(/C=C/C(=O)c2ccc(O)cc2O)cc1OC [VU0244224]
IP accumulation following stimulation of Y4R (DMSO set to 100%) [1]: 127 ± 19%
Effect on Y1R signal transduction (in words) ([2]; 10 μM compound, 1 nM NPY): no effects
Effect on Y2R signal transduction (in words) ([3]; 10 μM compound, 1 nM NPY): no effects
Effect on Y5R signal transduction (in words) ([4]; 10 μM compound, 1 nM NPY): no effects

Compound: NCCO.O=C(Nc1ccc([N+](=O)[O-])cc1Cl)c1cc(Cl)ccc1O [ethanolamine salt form of Niclosamide]
Efficacy on diabetic symptoms (plasma insulin decline, insulin response, high fat diet induced obesity) [6]: efficacious

Compound: pancreatic polypeptide (APLEPVYPGDNATPEQMAQYAADLRRYINMLTRPRY; ends and bridges not checked; UniProt P01298 30-65, looked up) [PP, native peptide ligand of the Y4R]
PP EC20 [7]: 0.055 ± 0.027 nM
PP EC80 [7]: 0.836 ± 0.033 nM
